System: Bryophyte (adult stage)
Test: Essay 1: post-emergence activity on Bryophyte
Format: in vivo
Conditions: spraying 100 ml/m^2; 7 days after treatment; score 0 = healthy plant, 6 = dead plant; FIG. 3
Experimental: In order to assess the post-emergence activity of compositions according to the invention on Bryophyte (adult stage), different compositions according to the invention (HE1 and HE2—see Table 3) were tested by spraying (100 ml/m^2) on Bryophytes (adult stage). Pelargonic acid at a concentration of 30 g/L (PA) (Compo®) was used as a positive control and a composition without the active substance (essential oil) (SSA) was also tested. [table] For Bryophytes, it is recognized that the score of 0 represents a healthy and undamaged plant while a score of 6 represents a dead plant. These scores were determined 7 days after treatment with the different compositions.

CCCCCCCCC(=O)O [pelargonic acid]
toxicity score: 6
